# Test results taken from BindingDB's records for doi:10.1021/jm950717a (Bristol-Myers Squibb, 1996).
# Target: T1, Dimer of Gag-Pol polyprotein [489-587] (Human immunodeficiency virus 1, UniProt P12497)
# T1 construct: 489-587
# Assay: Protease Inhibition Assay
# Conditions: pH 5.5; 37 °C
# Protocol: IC50 values are determined by inhibition of the cleavage of the peptidic substrate [V-S-Q-N-(beta-naphthylalanine)-P-I-V]. The IC50 value represents the concentration of inhibitor required to inhibit cleavage of substrate by 50%. The assay is performed by addition of purified enzyme to a mixture of inhibitor and the above substrate at pH 5.5. The reaction medium is incubated for 30 min at 37 °C followed by quenching with H3-PO4 and then analyzed by reverse phase HPLC UV (220 nm) detection.
row,SMILES,IC50 [nM]
1,"CC(C)(C)OC(=O)N[C@@H](Cc1ccccc1)[C@H](O)CNC[C@@H](O)[C@H](Cc1ccc(OCC(=O)N2CCOCC2)cc1)NC(=O)OC(C)(C)C [tert-butyl N-[(2S,3R)-4-{[(2R,3S)-3-{[(tert-butoxy)carbonyl]amino}-2-hydroxy-4-{4-[2-(morpholin-4-yl)-2-oxoethoxy]phenyl}butyl]amino}-3-hydroxy-1-phenylbutan-2-yl]carbamate]",100
2,"CC(C)(C)OC(=O)N[C@@H](Cc1ccccc1)[C@H](O)CNC[C@@H](O)[C@H](Cc1ccc(OCCN2CCOCC2)cc1)NC(=O)OC(C)(C)C [tert-butyl N-[(2S,3R)-4-{[(2R,3S)-3-{[(tert-butoxy)carbonyl]amino}-2-hydroxy-4-{4-[2-(morpholin-4-yl)ethoxy]phenyl}butyl]amino}-3-hydroxy-1-phenylbutan-2-yl]carbamate]",100
3,"CC(C)(C)OC(=O)N[C@@H](Cc1ccccc1)[C@H](O)CNC[C@@H](O)[C@H](Cc1ccc(OCC(O)c2cccnc2)cc1)NC(=O)OC(C)(C)C (stereo partly drawn) [[1S-[1R*,2S*(2S*,3R*)]]-[3-[[3-[[(1,1-Dimethylethoxy)-carbonyl]amino]-2-hydroxy-4-[4-[2-hydroxy-2-(3-pyridinyl)ethoxy]phenyl]butyl]amino]-2-hydroxy-1-]",110
